In patent publication US11802107B2, “Compounds and methods of use” (Signum Biosciences, Inc., priority 2017, dated 2023):
≈ marks a conversion by molar mass, not a printed value.

Columns and labels:
[1] = tested on: IL-10; assay: T-cell receptor (anti-CD3/CD28)-induced IL-10 on PBMCs; format: cell-based; details: Homo sapiens, PBMC, anti-CD3/CD28 beads, 24 hours, ELISA, read-out: TCR-PBMCs IL-10 Protein IC50
Experimental: Cryopreserved human Peripheral Blood Mononuclear cells (PBMCs) from healthy adult donors were obtained from Zen Bio, Inc (Cat No. SER-PBMC-F). Cells were cultured in 96-well plates with lymphocyte media (Cat No. LYMPH-1) and were pre-treated with test materials (≤100 μM) for 2 hours and later co-treated with test materials and anti-CD3/CD28 beads (Thermo-Fisher; Cat No. 11131D) at 1:0.4 PBMC:bead ratio for 24 hours at 37° C. and 5% CO2. After incubation, cell media supernatants were harvested and used to measure cytokine levels (IL-4, IL-5, IL-10) using ELISA kits (BD Biosciences® #555194, #555157; R&D Systems® #DY317). Results were represented as percent of inhibition relative to untreated and anti-CD3/CD28 beads-only treated cells. IC50 values were determined by non-linear regression analysis using the four-parameter logistic equation.

[2] = tested on: IL-6; assay: Nickel (Ni2+)-induced IL-6 on HDMECs; format: cell-based; details: Homo sapiens; HDMEC, 1 mM NiSO4, 6 hours, ELISA; read-out: Nickel-HDMECs IL-6 Protein IC50
Experimental: Human Dermal Microvascular Endothelial cells (HDMECs) from human skin tissues were obtained from Sciencell, Inc. (Cat No. 2000). Cells were cultured in 96-well plates for 24 hours with ECM media (Cat No. 1001) supplemented with endothelial cell growth supplement (Cat No. 50015) and 5% v/v FBS. On Day 2, media was removed and replaced with supplement-depleted medium for 24 hours. On Day 3, media was removed and cells were pre-treated with test materials (≤10 μM) for 2 hours and later co-treated with test materials and 1 mM NiSO4 (Sigma-Aldrich, Cat No. 227676) for 6 hours at 37° C. and 5% CO2. After incubation, cell media supernatants were harvested and used to measure IL-6 levels using ELISA kit (BD Biosciences® #555220). Results were represented as percent of inhibition relative to untreated and NiSO4-only treated cells. IC50 values were determined by non-linear regression analysis using the four-parameter logistic equation.

[3] = tested on: IFNγ; assay: PHA-induced IFNγ on PBMCs; format: cell-based; details: Homo sapiens, PBMC, PHA-L 20 μg/mL, 24 hours, ELISA
Experimental: Cryopreserved human Peripheral Blood Mononuclear cells (PBMCs) from healthy adult donors were obtained from Zen Bio, Inc (Cat No. SER-PBMC-F). Cells were cultured in 96-well plates with lymphocyte media (Cat No. LYMPH-1) and were pre-treated with test materials (≤100 μM) for 2 hours and later co-treated with test materials and PHA-L (Sigma Aldrich, Cat No. 11249738001) at 20 μg/mL and incubated for 24 hours at 37° C. and 5% CO2. After incubation, cell media supernatants were harvested and used to measure cytokine levels (IL-2, IFNγ) using ELISA kits (R&D Systems® #DY202, #DY285). Results were represented as percent of inhibition relative to untreated and PHA-only treated cells. IC50 values were determined by non-linear regression analysis using the four-parameter logistic equation.

[4] = tested on: IL-13; assay: Concanavalin-A-induced IL-13 on PBMCs; format: cell-based; details: Homo sapiens, PBMC, ConA, 24 hours, ELISA
[5] = tested on: P. acnes (ATCC 6919); assay: Minimal bactericidal concentration (MBC) against P. acnes; format: cell-based, Propionibacterium acnes; details: Cutibacterium acnes, ATCC6919; P. acnes 10^7 CFU/mL, in PBS, anaerobic conditions
[6] = tested on: P. acnes (ATCC 6919) biofilms; assay: P. acnes biofilm eradication (MBEC), crystal violet; format: cell-based, Propionibacterium acnes; details: 24 hours, ≥80% eradication vs vehicle
Experimental: P. acnes (ATCC® 6919™) was cultured as described above. Bacteria biofilms were established by seeding P. acnes cultures in 96-well plates and incubating for 24 hours without agitation. Later, biofilms were incubated with test materials for 24 hours. Remaining biofilms were washed and stained with crystal violet. […] The absorbance was measured at 595 nm in a microplate reader. […] Results from disk diffusion susceptibility testing (Kirby-Bauer Method) after 72 hours incubation were also obtained.

[7] = tested on: CXCL8 (IL-8); assay: P. acnes-induced IL-8 gene on human PBMCs (qPCR); format: cell-based; details: PBMC, PBMCs + live P. acnes 1:1, test material 30 PM, 24 hours
Experimental: Cryopreserved human Peripheral Blood Mononuclear cells (PBMCs) from healthy adult donors were obtained from Zen Bio, Inc (Cat No. SER-PBMC-F). Cells were cultured in 12-well plates with lymphocyte media (Cat No. LYMPH-1) and incubated with test materials ([…]) and live P. acnes (ATCC® 6919TM) at 1:1 PBMC: P. acnes bacteria ratio for 24 hours at 37° C. and 5% CO2. After incubation, cell media supernatants were harvested and used to measure pro-inflammatory cytokine levels (IL-8, TNF-α, IL-1b, IL-17) using ELISA kits (BD Biosciences® #557966, #555212, #555244; R&D Systems® #DY317). Total RNA was extracted from cells using the RNAqueous® kit (Ambion®; Cat No. 1912) and cDNA was obtained using the High Capacity RNA-to-cDNA kit (Applied Biosystems®; Cat No. 4387406). Quantitative PCR (qPCR) was performed using the TaqMan® Fast Advanced Master Mix (Applied Biosystems®; Cat No. 4444556) and specific TaqMan®-probes human gene primers CXCL8 (IL-8), IL1B (IL-1b), TNF (TNF-α), IL17A (IL-17A) and GAPDH to calculate the relative gene fold expression change per treatment. Gene expression analysis was performed using the comparative Ct method (also known as the 2-[delta][delta]Ct) approach by comparing the Ct values of P. acnes-only treated cells with the untreated samples and normalized to GAPDH gene expression as endogenous housekeeping gene.

[8] = tested on: IL-8; assay: Peptidoglycan (PGN)-induced IL-8 on NHEKs; format: cell-based, human; details: for IC50: Homo sapiens, NHEK, PGN 10 μg/mL, 24 hours, ELISA, read-out: PGN-NHEK 1L-8 Protein IC50; for PGN-induced IL-8 production: cultured human keratinocytes exposed to peptidoglycan (PGN)
Experimental: Normal human epidermal keratinocytes (NHEKs) from neonatal donors were obtained from Thermo-Fisher (Cat No. C-001-5C). Cells were cultured in 96-well plates for 24 hours with EpiLife media (Cat No. MEPI500CA) supplemented with keratinocytes growth supplement (Cat No. S0015). On Day 2, media was removed and replaced with supplement-depleted medium for 24 hours. On Day 3, media was removed and cells were pre-treated with test materials (≤1 μM) for 2 hours and later co-treated with test materials and PGN (Sigma Aldrich, Cat No. 77140) at 10 μg/mL and incubated for 24 hours at 37° C. and 5% CO2. PGN is a TLR-2 agonist. After incubation, cell media supernatants were harvested and used to measure pro-inflammatory cytokine levels (IL-8) using ELISA kit (BD Biosciences® #555244). Results were represented as percent of inhibition relative to untreated and PGN-only treated cells. IC50 values were determined by non-linear regression analysis using the four-parameter logistic equation.

| Structure (SMILES) | IC50 [1] [nM] | IC50 [2] [nM] | IC50 [3] [nM] | IC50 [4] [nM] | IC50 [8] [nM] | MBC [5] [µg/mL] | MBEC [6] | inhibition at 30 pM [7] [%] | PGN-induced IL-8 production [8] |
| --- | --- | --- | --- | --- | --- | --- | --- | --- | --- |
| N#Cc1ccc(Oc2ccc3c(c2)COB3O)cc1 [AN2728, reference compound] | 9000 | 100000 | 300 | 3800 | – | – | – | – | – |
| C/C(=C\CSC[C@H](NC(=O)N1CCC[C@H]1C(=O)O)C(=O)O)CCCC(C)CCCC(C)CCCC(C)C (stereo partly shown) [Compound E] | 39000 | – | 1400 | 1500 | 250 | 7 (≈ 12.9 µM) | 12 μg/mL and (21) μM | 8 | inhibit IL-8 production |
| C/C(=C\CSCC(NC(=O)N(CC(=O)O)CC(=O)O)C(=O)O)CCCC(C)CCCC(C)CCCC(C)C (stereo not shown) [Compound G] | – | – | > 10000 | 20 | 50 | 1 (≈ 1.79 µM) | 7 μg/mL and (11) μM | 0 | inhibit IL-8 production |

More lines, main results first:

| IC50 [1] [nM] | IC50 [2] [nM] | IC50 [3] [nM] | IC50 [4] [nM] | IC50 [8] [nM] | Structure (SMILES) | MBC [5] [µg/mL] | MBEC [6] | inhibition at 30 pM [7] [%] | PGN-induced IL-8 production [8] |
| --- | --- | --- | --- | --- | --- | --- | --- | --- | --- |
| 42000 | 30 | – | – | – | C/C(=C\CSCC(NC(=O)NCC(=O)O)C(=O)O)CCCC(C)CCCC(C)CCCC(C)C (stereo not shown) [A] | – | – | – | – |
| 34000 | 20 | > 10000 | 8200 | 250 | C/C(=C\CSC[C@H](NC(=O)N(C)CC(=O)O)C(=O)O)CCCC(C)CCCC(C)CCCC(C)C (stereo partly drawn) [Compound C, (2R)-2-{[(carboxymethyl)(methyl)carbamoyl]amino}-3-{[(2E)-3,7,11,15-tetramethylhexadec-2-en-1-yl]sulfanyl}propanoic acid] | 22 (≈ 42.7 µM) | 9 µg/mL | 0 | – |
| 19000 | 10 | > 10000 | 100 | – | C/C(=C\CSC[C@H](NC(=O)COCC(=O)O)C(=O)O)CCCC(C)CCCC(C)CCCC(C)C (stereo partly shown) [Compound T] | – | – | 0 | – |
